This passage reports IC50 results from patent US12195479B2, “Five- and six-membered compound, and preparation method therefor and pharmaceutical composition and use thereof” (HANGZHOU POLYMED BIOPHARMACEUTICALS, INC., priority 2021, dated 2025).

pIC50: −log10 of the molar value.

One assay addresses T1, FLT3 kinase (Homo sapiens, UniProt P36888).
T1 sequence (P36888 564-993): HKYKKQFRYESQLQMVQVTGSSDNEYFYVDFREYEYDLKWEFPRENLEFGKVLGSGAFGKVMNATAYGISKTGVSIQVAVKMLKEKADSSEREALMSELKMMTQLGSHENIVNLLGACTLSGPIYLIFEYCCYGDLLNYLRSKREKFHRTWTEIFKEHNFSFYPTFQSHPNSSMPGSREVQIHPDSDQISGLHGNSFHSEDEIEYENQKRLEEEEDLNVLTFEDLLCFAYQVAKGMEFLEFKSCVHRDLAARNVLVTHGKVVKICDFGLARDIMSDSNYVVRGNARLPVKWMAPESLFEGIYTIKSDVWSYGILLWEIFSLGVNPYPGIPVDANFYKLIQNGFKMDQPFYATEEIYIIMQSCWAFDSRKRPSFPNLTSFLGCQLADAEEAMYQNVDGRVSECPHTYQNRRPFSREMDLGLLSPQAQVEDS
Nature of the assay: Kinase inhibition, fluorescence microfluidic mobility shift assay (FLT3). The following applies: substrate peptide FAM-P2 3 μM, ATP 97 μM; one hour at 28° C.; assayed in duplicate. Format: biochemical.

In a further assay the target is T2, IRAK4 kinase (Homo sapiens, UniProt Q9NWZ3).
T2 sequence (Q9NWZ3 1-460): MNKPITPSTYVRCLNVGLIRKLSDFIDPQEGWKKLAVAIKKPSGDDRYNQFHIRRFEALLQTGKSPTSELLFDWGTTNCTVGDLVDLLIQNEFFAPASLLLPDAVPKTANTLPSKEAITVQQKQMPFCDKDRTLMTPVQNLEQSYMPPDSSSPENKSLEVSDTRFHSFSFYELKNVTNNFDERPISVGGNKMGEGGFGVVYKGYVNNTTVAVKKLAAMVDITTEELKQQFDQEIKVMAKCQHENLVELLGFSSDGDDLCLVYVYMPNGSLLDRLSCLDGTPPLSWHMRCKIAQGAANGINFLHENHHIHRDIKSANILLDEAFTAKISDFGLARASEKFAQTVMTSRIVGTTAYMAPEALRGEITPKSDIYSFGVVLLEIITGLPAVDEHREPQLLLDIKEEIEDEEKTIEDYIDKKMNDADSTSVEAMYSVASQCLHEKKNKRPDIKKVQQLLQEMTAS
Nature of the assay: Kinase inhibition, fluorescence microfluidic mobility shift assay (IRAK4). Format: biochemical. The note with it: substrate peptide FAM-P8 3 μM, ATP 10 μM; one hour at 28° C.; assayed in duplicate.

A further assay concerns MV4-11 cells. Put plainly: Cytotoxicity against MV4-11 cells (CellTiter-Glo). Format: cell-based. The note with it: Homo sapiens, incubated for 72 hours, CellTiter-Glo chemiluminescence. As for the experimental part:
Determination of the IC50 Value of the Compound's Cytotoxicity Against MV4-11 Cells
MV-4-11 cells were cultured with IMDM complete medium (IMDM+10% fetal bovine serum+1% Penicillin-Streptomycin, a mixture of penicillin-streptomycin). • 2. MV-4-11 cells in good condition were collected and washed twice with DPBS ([…] phosphate buffered saline solution). • 3. MV-4-11 cells were resuspended with IMDM complete medium, the cell density was adjusted to 1.11×10^6 cells/mL, and the MV-4-11 cells were added to 96-well plates at 90 μL per well. • 4. A compound solution with 10-fold concentration was prepared with IMDM complete medium, 10 μL of the compound solution with 10-fold concentration was added to the cells in the 96-well plate, mixed well, and then the 96-well plate was placed in a 5% CO2 incubator at 37° C. and incubated for 72 hours. • 5. After the incubation, the 96-well plate was taken out and equilibrated for 30 minutes at room temperature. Then 100 μL of CellTiter Glo reagent was added to each well and mixed on a horizontal shaker for 2 minutes. • 6. The 96-well plate was removed, equilibrated at room temperature for 10 minutes, and the chemiluminescence value was detected on a microplate reader.
(In general: ATP-based viability assays read luminescence as a measure of living cells.)

Procedure for FLT3 kinase: Based on the experimental method of fluorescence microfluidic mobility shift assay, the IC50 value of the compound for competitive binding of ATP to kinases IRAK4 and FLT3 was determined. The initial detection concentration of the compound was 10 μM, which was diluted to 0.38 nM with a 4-fold gradient and assayed in duplicate. In this case, commercially available staurosporine was the standard control for the assay.
Information on reagents and consumables is as follows: • IRAK4 kinase (Carna, Cat. No. 09-145, Lot. No. 14CBS-0020 H) • FLT3 kinase (Carna, Cat. No. 08-154, Lot. No. 07CBS-2350) • Substrate peptide FAM-P2 (GL Biochem, Cat. No. 112394, Lot. No. P131014-XP112394) • Substrate peptide FAM-P8 (GL Biochem, Cat. No. 112396, Lot. No. P170731-SY112396) • ATP (adenosine triphosphate, Sigma, Cat. No. A7699-1G, CAS No. 987-65-5) • DMSO (dimethyl sulfoxide, Sigma, Cat. No. D2650) • EDTA (ethylenediaminetetraacetic acid, Sigma, Cat. No. E5134, CAS No. 60-00-4) • Staurosporine (Selleckchem, Cat. No. 51421) • HEPES (4-(2-Hydroxyethyl)-1-piperazineethanesulfonic acid, Gibco, Cat. No. 15630-080) • Brij-35 solution (Polyoxyethylene lauryl ether, Sigma, Cat. No. B41840-100 mL) • DTT (dithiothreitol, Sigma, Cat. No. D0632-20G) • 0.2% Coating Reagent #3 (0.2% coating reagent, Perkin Elmer, Cat. No. 760050) • 96-well plate (Corning, Cat. No. 3365) • 384-well plate (Corning, Cat. No. 3573) Experimental operation method: • 1) FLT3 and IRAK4 kinases were dissolved in the kinase buffer (50 mM HEPES pH 7.5, 10 mM MgCl2, 2 mM DTT, and 0.01% Brij-35) at final concentrations of 0.9 nM, 30 nM, and 6 nM, respectively. • 2) The substrate peptide FAM-P2 and the substrate peptide FAM-P8, together with ATP, were dissolved in the above kinase buffer, respectively, where the final concentrations of the substrate peptide FAM-P2 and ATP for the determination of FLT3 were 3 μM and 97 μM, respectively; and the final concentrations of the substrate peptide FAM-P8 and ATP for the determination of IRAK4 were 3 μM and 10 μM, respectively. • 3) Compound dilution: The compound was first diluted to 50 μM, and then diluted downward with DMSO in a 4-fold gradient. In this case, the solution without compound and kinase served as the blank control, corresponding to the “minimum value” shown below; the solution without compound but containing kinase, adenosine triphosphate, DMSO, and the buffer served as the positive control, corresponding to the “maximum value” shown below. • 4) Kinase reaction and termination: 10 μL of the kinase buffer was added to a 384-well plate containing 5 μL of the compound to be tested, and the mixture was incubated for 10 minutes at room temperature; another 10 μL, of buffer containing the substrate peptide and adenosine triphosphate was added to the 384-well plate, and after incubation for one hour at 28° C., 25 μL, of termination solution (100 mM HEPES pH 7.5, 50 mM EDTA, 0.2% Coating Reagent #3, and 0.015% Brij-35) was added to each well for reaction termination. • 5) Data reading: CaliperEZ Reader II instrument was used to read the conversion rate data. Setting conditions: downstream voltage as −500 V, upstream voltage as −2250 V, base pressure as −0.5 PSI, and screening pressure as −1.2 PSI. • 6) Data calculation: the conversion rate data was copied from CaliperEZ Reader II, and the conversion rate was converted into inhibition rate data.

Regarding `Cc1cc(-c2nc(C(=O)Nc3cc4oc(N5CCOCC5)nc4nc3C(C)(C)O)co2)ccn1` [II-122], the negative logarithm of the IC50 (pIC50) at FLT3 kinase was 8.21; on IRAK4 kinase, 7.85; in the assay on MV4-11 cells, 7.48.
In the same order, the values of `Cc1cc(-c2nc(C(=O)Nc3cc4sc(N5CCOCC5)nc4nc3C(C)(C)O)co2)ccn1` [II-124] are 9.51, 8.32 and 8.30.
The corresponding values for `Cc1cc(-c2nc(C(=O)Nc3cc4oc(N5CCC(F)(F)CC5)nc4nc3N3CCC(O)C3)co2)ccn1` (stereo not drawn) [II-129] are 7.96, 7.24 and 7.30.
As to `Cc1cc(-c2nc(C(=O)Nc3cc4oc(N5CCOCC5)nc4cc3N3CCC(O)C3)co2)ccn1` (stereo not drawn) [II-132], the pIC50 on FLT3 kinase was 9.46; at IRAK4 kinase, 8.14; with MV4-11 cells it was 8.92.
`Cc1cc(-c2nc(C(=O)Nc3cc4sc(N5CCOCC5)nc4cc3N3CCC(O)C3)co2)ccn1` (stereo not drawn) [II-133]: the results for the pIC50 on FLT3 kinase, at IRAK4 kinase and with MV4-11 cells were 9.59, 8.32 and 9.70, respectively.

For orientation: pIC50 means −log10 of the IC50, conventionally taken in molar units.
